In patent US20260285872A1, “COMPOUNDS AND METHODS FOR DEGRADING GSPT1” (priority 2023, published 2026):
Read-outs that look alike come from different tables or passages of the source.

Experiments:
[1] = tested on: MV-4-11 cells; experiment: AML cell viability, CellTiter-Glo, MV-4-11 cells; type: cell-based; conditions: Homo sapiens, read-out: Cell viability classification
Description: MV4-11 cells were obtained from ATCC and grown in IMDM supplemented with 10% FBS. The cells were maintained at 37° C. under 5% CO2. […] The luminescence was normalized to that of DMSO-treated samples. IC50 values were obtained using three-parameter non-linear regressions using Prism (GraphPad). […] Cell viability was measured using the CellTiter-Glo reagent after 44 hours of treatment. […] MV4-11 cells were obtained from ATCC and grown in IMDM supplemented with 10% FBS. The cells were maintained at 37° C. under 5% CO2. […] Cell viability was measured using the CellTiter-Glo reagent after 44 hours of treatment.

[2] = target: T1, GSPT1 (Homo sapiens, UniProt P15170+Q96SW2); experiment: GSPT1 degradation, Western Blot, MV-4-11 cells, 0.1 μM, 4 hours; type: cell-based; conditions: MV4-11, % reduction of GSPT1 compared to DMSO, normalized to GAPDH, read-out: GSPT1 degradation classification
T1 sequence (P15170 whole entry): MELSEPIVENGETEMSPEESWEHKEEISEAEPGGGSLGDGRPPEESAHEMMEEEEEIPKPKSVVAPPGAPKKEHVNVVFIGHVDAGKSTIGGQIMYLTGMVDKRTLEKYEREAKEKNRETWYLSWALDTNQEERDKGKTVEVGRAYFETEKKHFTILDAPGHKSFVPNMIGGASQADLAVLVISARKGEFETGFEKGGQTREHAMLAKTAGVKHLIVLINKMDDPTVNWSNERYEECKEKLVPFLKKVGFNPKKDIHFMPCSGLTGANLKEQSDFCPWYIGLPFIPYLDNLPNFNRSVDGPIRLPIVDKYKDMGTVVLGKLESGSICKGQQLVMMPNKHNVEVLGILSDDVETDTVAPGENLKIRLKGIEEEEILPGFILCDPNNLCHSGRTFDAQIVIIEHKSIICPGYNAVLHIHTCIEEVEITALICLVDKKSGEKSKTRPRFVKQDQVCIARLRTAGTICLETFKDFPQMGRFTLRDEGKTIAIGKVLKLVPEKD
T1 sequence (Q96SW2 whole entry): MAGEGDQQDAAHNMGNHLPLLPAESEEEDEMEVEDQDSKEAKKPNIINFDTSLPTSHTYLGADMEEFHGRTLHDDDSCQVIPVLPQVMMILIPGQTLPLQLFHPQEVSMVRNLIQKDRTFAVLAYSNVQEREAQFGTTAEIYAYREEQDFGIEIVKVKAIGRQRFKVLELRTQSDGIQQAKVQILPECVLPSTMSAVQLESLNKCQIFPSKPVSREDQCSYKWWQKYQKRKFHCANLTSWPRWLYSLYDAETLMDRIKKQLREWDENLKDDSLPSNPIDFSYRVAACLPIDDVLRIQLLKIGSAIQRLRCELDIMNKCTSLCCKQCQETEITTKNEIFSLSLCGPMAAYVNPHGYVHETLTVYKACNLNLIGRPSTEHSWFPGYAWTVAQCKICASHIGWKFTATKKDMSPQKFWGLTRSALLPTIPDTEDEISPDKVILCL
T1 sequence (Q16531 whole entry partner): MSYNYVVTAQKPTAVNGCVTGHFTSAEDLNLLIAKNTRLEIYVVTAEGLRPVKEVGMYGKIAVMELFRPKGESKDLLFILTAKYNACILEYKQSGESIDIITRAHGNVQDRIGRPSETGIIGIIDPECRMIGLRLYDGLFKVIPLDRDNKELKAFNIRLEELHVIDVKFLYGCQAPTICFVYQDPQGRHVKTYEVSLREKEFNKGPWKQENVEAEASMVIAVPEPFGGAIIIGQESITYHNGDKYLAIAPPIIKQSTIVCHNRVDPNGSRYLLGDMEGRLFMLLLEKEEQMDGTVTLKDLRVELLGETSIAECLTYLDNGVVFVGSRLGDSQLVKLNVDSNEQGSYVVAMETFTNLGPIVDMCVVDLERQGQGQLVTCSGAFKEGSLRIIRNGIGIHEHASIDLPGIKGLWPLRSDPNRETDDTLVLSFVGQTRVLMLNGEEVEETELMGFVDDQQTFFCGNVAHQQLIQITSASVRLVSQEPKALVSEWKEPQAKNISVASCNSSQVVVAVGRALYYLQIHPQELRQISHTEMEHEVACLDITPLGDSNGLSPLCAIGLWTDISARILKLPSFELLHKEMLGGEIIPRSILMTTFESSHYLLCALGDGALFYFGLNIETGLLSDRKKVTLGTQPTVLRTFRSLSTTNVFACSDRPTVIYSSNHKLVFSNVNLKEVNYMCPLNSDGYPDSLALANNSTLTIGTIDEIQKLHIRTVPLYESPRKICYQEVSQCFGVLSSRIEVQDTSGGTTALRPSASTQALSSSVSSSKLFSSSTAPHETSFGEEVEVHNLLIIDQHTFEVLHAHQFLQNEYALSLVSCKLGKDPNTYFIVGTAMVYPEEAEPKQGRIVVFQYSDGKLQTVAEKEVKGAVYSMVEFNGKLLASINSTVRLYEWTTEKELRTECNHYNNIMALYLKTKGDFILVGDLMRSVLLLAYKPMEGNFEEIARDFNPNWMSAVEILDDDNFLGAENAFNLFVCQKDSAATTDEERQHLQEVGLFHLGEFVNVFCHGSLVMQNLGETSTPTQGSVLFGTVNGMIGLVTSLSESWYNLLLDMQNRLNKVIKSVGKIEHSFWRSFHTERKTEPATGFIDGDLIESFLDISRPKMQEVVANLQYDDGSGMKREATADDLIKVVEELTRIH
Description: Compounds of the present disclosure was added to cells (final DMSO concentration of 0.1%) and incubated for 4 hours. GSPT1 levels were determined in MV-4-11 cells using Western Blot analysis. […] Protein levels were normalized to GAPDH levels.
The efficacy of GSPT1 degradation of a part of compounds of the present disclosure was determined by treating MV-4-11 cells at 0.1 μM (final DMSO concentration of 0.1%) for 4 hours. GSPT1 levels were determined using Western Blot and normalized to GAPDH levels.

[3] = target: T1, GSPT1; experiment: cell-based; conditions: read-out: GSPT1 degradation classification
[4] = MV4-11, TABLE 2, MV-4-11 cells assumed, CellTiter-Glo, 44 hours
[5] = MV4-11, MV-4-11 cells, CellTiter-Glo, 44 hours of treatment, TABLE 1
[6] = MV4-11, MV-4-11 cells, 1 μM, 6 hours, Western Blot, % reduction of GSPT1 compared to DMSO, normalized to GAPDH

SMILES	IC50 [1, 5]	inhibition at 1 µM [3, 6]	inhibition at 1 µM ([3]; MV4-11, 6 h)	further results
O=C1CCC(N2Cc3cc(C(=O)N4CCc5c(F)ccc(F)c54)ccc3C2=O)C(=O)N1 (centres unmarked) [Example 63, 3-(5-(4,7-difluoroindoline-1-carbonyl)-1-oxoisoindolin-2-yl)piperidine-2,6-dione]	–	–	–	IC50 [1, 4]: 100 to 1000 nM; inhibition at 0.1 µM [2]: < 50%
O=C1CCC(N2Cc3cc(C(=O)Nc4csc5cccc(F)c45)ccc3C2=O)C(=O)N1 (centres unmarked) [Example 67, 2-(2,6-dioxopiperidin-3-yl)-N-(4-fluorobenzo[b]thiophen-3-yl)-1-oxoisoindoline-5-carboxamide]	–	–	–	IC50 [1, 4]: < 100 nM; inhibition at 0.1 µM [2]: 50 to 75%
COc1cccc2c1N(C(=O)c1ccc3c(c1)CN(C1CCC(=O)NC1=O)C3=O)CC2 (centres unmarked) [Example 85, 3-(5-(7-methoxyindoline-1-carbonyl)-1-oxoisoindolin-2-yl)piperidine-2,6-dione]	100 to 1000 nM	< 50%	–	–
COc1ccc2c(c1)N(C(=O)c1ccc3c(c1)CN(C1CCC(=O)NC1=O)C3=O)CC2 (centres unmarked) [Example 84, 3-(5-(6-methoxyindoline-1-carbonyl)-1-oxoisoindolin-2-yl)piperidine-2,6-dione]	100 to 1000 nM	–	< 50%	–
O=C1CCC(N2Cc3cc(C(=O)NC45CCC(F)(CC4)CC5)ccc3C2=O)C(=O)N1 (centres unmarked) [Example 72, 2-(2,6-dioxopiperidin-3-yl)-N-(4-fluorobicyclo[2.2.2]octan-1-yl)-1-oxoisoindoline-5-carboxamide]	–	–	–	IC50 [1, 4]: 100 to 1000 nM; inhibition at 0.1 µM [2]: 50 to 75%
O=C1CCC(N2Cc3cc(C(=O)Nc4csc5ncccc45)ccc3C2=O)C(=O)N1 (centres unmarked) [Example 62, 2-(2,6-dioxopiperidin-3-yl)-1-oxo-N-(thieno[2,3-b]pyridin-3-yl)isoindoline-5-carboxamide]	> 1000 nM	< 50%	–	–
O=C1CCC(N2Cc3cc(C(=O)N4CCc5cccc(F)c54)ccc3C2=O)C(=O)N1 (centres unmarked) [Example 76, 3-(5-(7-fluoroindoline-1-carbonyl)-1-oxoisoindolin-2-yl)piperidine-2,6-dione]	100 to 1000 nM	–	< 50%	–
O=C1CCC(N2Cc3cc(C(=O)N4CCc5ncccc54)ccc3C2=O)C(=O)N1 (centres unmarked) [Example 28, 3-(5-(2,3-dihydro-1H-pyrrolo[3,2-b]pyridine-1-carbonyl)-1-oxoisoindolin-2-yl)piperidine-2,6-dione]	< 100 nM	50 to 75%	–	–
O=C1CCC(N2Cc3cc(C(=O)N4CCc5ccc(OC(F)(F)F)cc54)ccc3C2=O)C(=O)N1 (centres unmarked) [Example 81, 3-(1-oxo-5-(6-(trifluoromethoxy)indoline-1-carbonyl)isoindolin-2-yl)piperidine-2,6-dione]	> 1000 nM	–	< 50%	–
O=C1CCC(N2Cc3cc(C(=O)N4CCc5ccc(C(F)(F)F)cc54)ccc3C2=O)C(=O)N1 (centres unmarked) [Example 79, 3-(1-oxo-5-(6-(trifluoromethyl)indoline-1-carbonyl)isoindolin-2-yl)piperidine-2,6-dione]	100 to 1000 nM	–	50 to 75%	–
O=C1CCC(N2Cc3cc(C(=O)N4CCc5cc(OC(F)(F)F)ccc54)ccc3C2=O)C(=O)N1 (centres unmarked) [Example 80, 3-(1-oxo-5-(5-(trifluoromethoxy)indoline-1-carbonyl)isoindolin-2-yl)piperidine-2,6-dione]	100 to 1000 nM	–	50 to 75%	–
O=C1CCC(N2Cc3cc(C(=O)N4Cc5ccc(C(F)(F)F)cc5C4)ccc3C2=O)C(=O)N1 (centres unmarked) [Example 22, 3-(1-oxo-5-(5-(trifluoromethyl)isoindoline-2-carbonyl)isoindolin-2-yl)piperidine-2,6-dione]	< 100 nM	> 75%	–	–
O=C1CCC(N2Cc3cc(C(=O)N4Cc5ccncc5C4)ccc3C2=O)C(=O)N1 (centres unmarked) [Example 31, 3-(5-(2,3-dihydro-1H-pyrrolo[3,4-c]pyridine-2-carbonyl)-1-oxoisoindolin-2-yl)piperidine-2,6-dione]	100 to 1000 nM	50 to 75%	–	–
COc1cccc2c1CCN2C(=O)c1ccc2c(c1)CN(C1CCC(=O)NC1=O)C2=O (centres unmarked) [Example 82, 3-(5-(4-methoxyindoline-1-carbonyl)-1-oxoisoindolin-2-yl)piperidine-2,6-dione]	< 100 nM	50 to 75%	–	–
O=C1CCC(N2Cc3cc(C(=O)Nc4csc5cccnc45)ccc3C2=O)C(=O)N1 (centres unmarked) [Example 59, 2-(2,6-dioxopiperidin-3-yl)-1-oxo-N-(thieno[3,2-b]pyridin-3-yl)isoindoline-5-carboxamide]	< 100 nM	> 75%	–	–
O=C1CCC(N2Cc3cc(C(=O)Nc4csc5cnccc45)ccc3C2=O)C(=O)N1 (centres unmarked) [Example 61, 2-(2,6-dioxopiperidin-3-yl)-1-oxo-N-(thieno[2,3-c]pyridin-3-yl)isoindoline-5-carboxamide]	< 100 nM	> 75%	–	–
O=C1CCC(N2Cc3cc(C(=O)N4CCc5c4cccc5C(F)(F)F)ccc3C2=O)C(=O)N1 (centres unmarked) [Example 77, 3-(1-oxo-5-(4-(trifluoromethyl)indoline-1-carbonyl)isoindolin-2-yl)piperidine-2,6-dione]	< 100 nM	–	> 75%	–
COc1ccc2c(c1)CCN2C(=O)c1ccc2c(c1)CN(C1CCC(=O)NC1=O)C2=O (centres unmarked) [Example 83, 3-(5-(5-methoxyindoline-1-carbonyl)-1-oxoisoindolin-2-yl)piperidine-2,6-dione]	< 100 nM	–	< 50%	–
O=C1CCC(N2Cc3cc(C(=O)N4CCc5cc(Cl)cc(F)c54)ccc3C2=O)C(=O)N1 (centres unmarked) [Example 56, 3-(5-(5-chloro-7-fluoroindoline-1-carbonyl)-1-oxoisoindolin-2-yl)piperidine-2,6-dione]	100 to 1000 nM	50 to 75%	–	–
O=C1CCC(N2Cc3cc(C(=O)N4CCc5cc(F)ccc54)ccc3C2=O)C(=O)N1 (centres unmarked) [Example 75, 3-(5-(5-fluoroindoline-1-carbonyl)-1-oxoisoindolin-2-yl)piperidine-2,6-dione]	< 100 nM	–	> 75%	–
O=C1CCC(N2Cc3cc(C(=O)Nc4csc5ccccc45)ccc3C2=O)C(=O)N1 (centres unmarked) [Example 8, N-(benzo[b]thiophen-3-yl)-2-(2,6-dioxopiperidin-3-yl)-1-oxoisoindoline-5-carboxamide]	< 100 nM	–	> 75%	–
O=C1CCC(N2Cc3cc(C(=O)N4CCc5c(F)cccc54)ccc3C2=O)C(=O)N1 (centres unmarked) [Example 74, 3-(5-(4-fluoroindoline-1-carbonyl)-1-oxoisoindolin-2-yl)piperidine-2,6-dione]	< 100 nM	–	> 75%	–
O=C1CCC(N2Cc3cc(C(=O)N4Cc5cccc(C(F)(F)F)c5C4)ccc3C2=O)C(=O)N1 (centres unmarked) [Example 21, 3-(1-oxo-5-(4-(trifluoromethyl)isoindoline-2-carbonyl)isoindolin-2-yl)piperidine-2,6-dione]	< 100 nM	> 75%	–	–
O=C1CCC(N2Cc3cc(C(=O)N[C@H]4CCc5ccccc54)ccc3C2=O)C(=O)N1 (stereo partly drawn) [Example 1, N—((S)-2,3-dihydro-1H-inden-1-yl)-2-(2,6-dioxopiperidin-3-yl)-1-oxoisoindoline-5-carboxamide]	–	–	< 50%	IC50 ([1]; MV4-11, 44 h): < 100 nM
O=C1CCC(N2Cc3cc(C(=O)N4CCc5cc(C(F)(F)F)ccc54)ccc3C2=O)C(=O)N1 (centres unmarked) [Example 78, 3-(1-oxo-5-(5-(trifluoromethyl)indoline-1-carbonyl)isoindolin-2-yl)piperidine-2,6-dione]	100 to 1000 nM	–	50 to 75%	–
